Source: patent publication US7514422B2, “5HT2c receptor modulators” (Arena Pharmaceuticals, Inc., priority 2002, dated 2009)
pIC50: −log10 of the molar value.

target: T1, human 5-HT2c receptor (Homo sapiens, UniProt P28335); assay: Intracellular IP3 Accumulation Assay; type: cell-based; details: HEK293 cells transfected with human 5-HT2c receptor; averages of at least two trials; read-out: 5-HT2C (IC50) IP Accumulation Assay
T1 construct: expressed in transfected cells; host or cells: HEK293
T1 sequence (P28335 33-458): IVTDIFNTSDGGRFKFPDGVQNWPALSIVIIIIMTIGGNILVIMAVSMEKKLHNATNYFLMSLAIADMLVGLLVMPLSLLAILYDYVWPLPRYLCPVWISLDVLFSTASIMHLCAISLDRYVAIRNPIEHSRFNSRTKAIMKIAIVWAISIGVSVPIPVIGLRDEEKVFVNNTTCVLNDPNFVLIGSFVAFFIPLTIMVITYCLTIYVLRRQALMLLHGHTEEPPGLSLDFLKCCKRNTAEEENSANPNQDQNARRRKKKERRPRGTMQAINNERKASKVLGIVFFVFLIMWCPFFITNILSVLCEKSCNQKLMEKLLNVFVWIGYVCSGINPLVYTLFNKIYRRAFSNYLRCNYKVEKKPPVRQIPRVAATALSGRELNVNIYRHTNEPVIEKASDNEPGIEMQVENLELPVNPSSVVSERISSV
Method: HEK293 cells were transfected in 15 cm sterile dishes with or without (control) 16 ug of human 5-HT2c receptor cDNA using 25 ul of lipofectamine. Cells were then incubated for 34 hours at 37° C/5% CO2 and then transfection media was removed and replaced with 100 ul of DMEM. Cells were then plated onto […] sterile dishes. The next day cells were plated into 96 well PDL microtiter plates at a density of 55K/0.2 ml. Six hours latter, media was exchanged with [^3H]inositol (0.25 uCi/well) in inositol free DMEM and plates were incubated at 37° C./5% CO2 overnight. The next day, wells were aspirated and 200 ul of DMEM containing test compound, 10 uM pargyline, and 10 mM LiCl was added to appropriate wells. Plates were then incubated at 37° C./5% CO2 for three hours followed aspiration and by addition of fresh ice cold stop solution (1M KOH, 19 mM Na-borate, 3.8 mM EDTA) to each well. Plates were kept on ice for 5-10 min and the wells were neutralized by addition of 200 ul of fresh ice cold neutralization solution (7.5% HCl). Plates were then frozen until further processing is desired. The lysate was then transferred into 1.5 ml Eppendorf tubes and 1 ml of chloroform/methanol (1:2) was added/tube. The solution was vortexed for 15 seconds and the upper phase was applied to a Biorad AG1-X8™ anion exchange resin (100-200 mesh). First, the resin was washed with water at 1:1.25 W/V and 0.9 ml of upper phase was loaded onto the column. The column was then washed with 10 ml of 5 mM myo-inositol and 10 ml of 5 mM Na-borate/60 mM Na-formate. The inositol tris phosphates were eluted into scintillation vials containing 10 ml of scintillation cocktail with 2 ml of 0.1 M formic acid/1 M ammonium formate. The columns were regenerated by washing with 10 ml of 0.1 M formic acid/3M ammonium formate and rinsed twice with dd H2O and stored at 4° C. in water.

| Compound | pIC50 |
| --- | --- |
| COc1cc2c(cc1Br)C(C)CNCC2 (racemic) [Example 1, (R,S) 8-Bromo-7-methoxy-1-methyl-2,3,4,5-tetrahydro-1H-3-benzazepine] | 8.38 |
| COc1cc2c(cc1Cl)C(C)CNCC2 (racemic) [Example 2, (R,S) 8-Chloro-7-methoxy-1-methyl-2,3,4,5-tetrahydro-1H-3-benzazepine] | 8.35 |
| COc1cc2c(cc1I)C(C)CNCC2 (racemic) [Example 3, (R,S) 8-Iodo-7-methoxy-1-methyl-2,3,4,5taetrhydro-1H-3-benzazepine] | 8.85 |
| CC1CNCCc2cc(O)c(Br)cc21 (racemic) [Example 4, (R,S) 8-Bromo-7-hydroxy-1-methyl-2,3,4,5tetrahydro-1H-3-benzazepine] | 8.68 |
| C=CCOc1cc2c(cc1Br)C(C)CNCC2 (racemic) [Example 5, (R,S) 7-Allyloxy-8-bromo-1-methyl-2,3,4,5tetrahydro-1H-3-benzazepine] | 7.92 |
| C=CCOc1cc2c(cc1I)C(C)CNCC2 (racemic) [Example 12, (R,S) 7-Allyloxy-8-iodo-1-methyl-2,3,4,5-tetrahydro-1H-3-benzazepine] | 8.20 |
| CCC1CNCCc2cc(OC)c(Br)cc21 (racemic) [Example 19, (R,S) 8-Bromo-1-ethyl-7-methoxy-2,3,4,5-tetrahydro-1H-3-benzazepine] | 7.74 |
| CC1CNCCc2ccc(Br)cc21 (racemic) [Example 32, (R,S) 8-Bromo-1-methyl-2,3,4,5tetrahydro-1H-3-benzazepine] | 8.68 |
